Data on five molecules can be found in patent US6245743A, “Inhibitors of factor Xa” (COR Therapeutics, Inc., priority 1998, dated 2001).

Square brackets hold non-standard residues; d marks the D form. Peptide text beside a SMILES is read from it. * marks the point of attachment. Hydrocinnamoyl = O=C(CCc1ccccc1)*; dCit = NC(=O)NCCC[C@@H](N)C(=O)O; Boc = CC(C)(C)OC(=O)*

One series concerns the target prothrombinase complex (Homo sapiens, UniProt P00742). Kind of series: Prothrombinase inhibition assay, plasma free system (thrombin generation, Chromozym TH). It is filed as biochemical. The note with it: read-out: Inhibitory Activity (IC50) Prothrombinase.
The next series concerns the target factor Xa (Homo sapiens, UniProt P00742). Kind of series: Factor Xa amidolytic assay (chromogenic substrate S2765). As to conditions: read-out: Inhibitory Activity (IC50) Factor Xa. It is filed as biochemical.
In series [1] the test system is rabbit venous thrombosis model. Kind of series: Rabbit deep vein (venous) thrombosis model. Type of series: in vivo. The note with it: for Hct: mean (SD on next line); for PLT / RBC / WBC: mean±SD. The source says: Rabbits were anesthetized with I.M. injections of Ketamine, Xylazine, and Acepromazine cocktail.
The nature of series [2]: Cuticle bleeding time model in rabbits. It is filed as in vivo, rabbit. The note with it: 1500 μg/kg+14.85 μg/kg/min, bleeding time experiments. As for the experimental part: In an ancillary study, a Cuticle Bleeding Time model was used to evaluate the effect of test compounds on bleeding time (BT) measurements in rabbits. The standardized protocol involved anesthesia and catheterization of rabbits as previously described in this Example 43. To measure BT, a toe nail was cut 5 mm from the base of the cuticle with a canine nail trimming device. Time until cessation of bleeding was recorded by wicking the blood on to BT blotting paper in 30 second intervals. Test compound was administered as a bolus followed by infusion regimen. Two BT measurements were obtained prior to administration of test compound and three BT measurements accomplished serially after initiation of steady state infusion of test compound. BT measurements were allowed to continue for up to 30 minutes at which time it was stopped with application of silver nitrate. Blood samples were obtained just prior to all BT measurements and processed for measurement of hematological and coagulation parameters.

Sequence of prothrombinase complex (P00742 235-488 limits assumed): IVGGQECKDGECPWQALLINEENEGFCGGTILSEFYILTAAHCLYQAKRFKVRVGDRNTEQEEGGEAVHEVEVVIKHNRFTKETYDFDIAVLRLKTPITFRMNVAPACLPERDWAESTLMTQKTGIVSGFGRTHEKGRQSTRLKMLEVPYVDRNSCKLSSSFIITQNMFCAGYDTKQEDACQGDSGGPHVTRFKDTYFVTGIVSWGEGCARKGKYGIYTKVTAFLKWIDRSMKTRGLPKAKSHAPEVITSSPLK
Sequence of prothrombinase complex (P00742 41-179 limits assumed): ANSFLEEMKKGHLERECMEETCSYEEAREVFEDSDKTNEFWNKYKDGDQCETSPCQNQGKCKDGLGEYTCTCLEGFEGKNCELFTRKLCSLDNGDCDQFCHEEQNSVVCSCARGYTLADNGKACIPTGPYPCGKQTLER
Sequence of prothrombinase complex (P12259 29-737 partner limits assumed): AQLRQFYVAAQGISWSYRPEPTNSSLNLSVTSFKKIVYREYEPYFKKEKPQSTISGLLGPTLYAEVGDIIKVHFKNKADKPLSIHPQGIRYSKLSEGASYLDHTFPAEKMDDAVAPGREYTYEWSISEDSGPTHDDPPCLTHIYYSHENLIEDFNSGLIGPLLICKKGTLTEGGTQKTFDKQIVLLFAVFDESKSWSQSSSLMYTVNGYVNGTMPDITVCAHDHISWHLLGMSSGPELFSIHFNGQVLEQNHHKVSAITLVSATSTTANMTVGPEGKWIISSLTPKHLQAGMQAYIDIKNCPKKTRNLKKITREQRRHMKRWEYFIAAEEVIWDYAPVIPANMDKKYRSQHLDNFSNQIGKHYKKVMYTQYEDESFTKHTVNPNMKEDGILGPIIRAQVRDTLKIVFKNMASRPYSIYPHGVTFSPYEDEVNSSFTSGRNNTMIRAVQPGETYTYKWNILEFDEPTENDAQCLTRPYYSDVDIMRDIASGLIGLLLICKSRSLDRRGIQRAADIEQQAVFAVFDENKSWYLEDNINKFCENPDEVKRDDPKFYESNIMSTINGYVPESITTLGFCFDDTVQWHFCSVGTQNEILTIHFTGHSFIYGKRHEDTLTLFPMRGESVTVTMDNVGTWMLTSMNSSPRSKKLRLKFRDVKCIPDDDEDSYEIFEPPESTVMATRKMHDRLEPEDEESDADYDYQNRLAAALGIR
Sequence of prothrombinase complex (P12259 1574-2224 partner limits assumed): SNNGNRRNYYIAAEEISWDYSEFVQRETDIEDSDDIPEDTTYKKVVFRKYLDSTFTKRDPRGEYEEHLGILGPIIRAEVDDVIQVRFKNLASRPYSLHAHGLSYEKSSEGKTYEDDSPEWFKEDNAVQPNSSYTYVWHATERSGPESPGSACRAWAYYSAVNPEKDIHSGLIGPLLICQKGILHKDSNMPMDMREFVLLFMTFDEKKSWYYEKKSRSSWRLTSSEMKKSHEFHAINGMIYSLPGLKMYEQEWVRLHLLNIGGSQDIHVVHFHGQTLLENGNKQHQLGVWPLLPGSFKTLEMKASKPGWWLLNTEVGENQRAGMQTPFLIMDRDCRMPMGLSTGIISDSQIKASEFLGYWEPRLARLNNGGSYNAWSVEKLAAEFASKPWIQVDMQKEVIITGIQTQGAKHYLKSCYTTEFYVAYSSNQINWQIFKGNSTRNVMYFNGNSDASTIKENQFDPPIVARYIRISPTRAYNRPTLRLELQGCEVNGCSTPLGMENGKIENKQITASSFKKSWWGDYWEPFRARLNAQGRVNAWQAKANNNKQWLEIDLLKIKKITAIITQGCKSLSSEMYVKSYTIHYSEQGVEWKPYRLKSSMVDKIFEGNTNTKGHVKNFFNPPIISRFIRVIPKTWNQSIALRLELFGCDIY
Sequence of factor Xa (P00742 235-488 limits assumed): as the sequence (P00742 235-488 limits assumed) above
Sequence of factor Xa (P00742 41-179 limits assumed): as the sequence (P00742 41-179 limits assumed) above

For `N=C(N)NCCC[C@@H](C=O)NC(=O)CNC(=O)[C@@H](CCCNC(=N)N)NC(=O)CCc1ccccc1` [PhCH2 CH2 CO-D-Arg-Gly-Arg-H, 3-Phenylpropanoyl-D-Arg-Gly-Arg-H] (Hydrocinnamoyl-[dR]-Gly-Arg-aldehyde), the IC50 on prothrombinase complex came out at 1700 nM.
`CN(C)C(=NCCCC[C@@H](NC(=O)OC(C)(C)C)C(=O)NCC(=O)N[C@H](C=O)CCCNC(=N)N)N(C)C` [Boc-D-Har((CH3)4)-Gly-Arg-H]: the IC50 at prothrombinase complex came to 44000 nM; at factor Xa it was 5000 nM.
`CC(C)(C)OC(=O)N[C@H](CCCNC(=N)N)C(=O)NCC(=O)N[C@H](C=O)CCCNC(=N)N` [Boc-D-Arg-Gly-Arg-H] (Boc-[dR]-Gly-Arg-aldehyde): in series [1] (200 + 1.98 μg/kg + μg/kg/min), the Hct is on record as 36.9%, the PLT is 393 ± 84 × 10^3 /μL, the RBC was 5.69 ± 0.14 × 10^6 /μL and the WBC is 4.45 ± 0.97 × 10^3 /μL. Further, in series [1] (600 + 5.94 μg/kg + μg/kg/min), the Hct is 35.3%, the PLT was 442 ± 81 × 10^3 /μL, the RBC was 5.74 ± 0.48 × 10^6 /μL and the WBC is listed as 3.87 ± 0.65 × 10^3 /μL. Also, in series [1] (1000 + 9.90 μg/kg + μg/kg/min), the Hct turned out to be 35.5%, the PLT is 375 ± 73 × 10^3 /μL, the RBC is given as 5.71 ± 0.28 × 10^6 /μL and the WBC is 5.09 ± 1.61 × 10^3 /μL. For the same molecule, in series [1] (1500 + 14.85 μg/kg + μg/kg/min), the Hct amounted to 36.0%, the PLT is recorded as 433 ± 22 × 10^3 /μL, the RBC is 5.80 ± 0.50 × 10^6 /μL and the WBC is reported as 4.82 ± 1.01 × 10^3 /μL. Further, the “effects on hematological parameters as compared to saline controls” value in series [1] (all dose regimens) is recorded as “no significant effects”. Moreover, the “antithrombotic efficacy in the rabbit venous thrombosis model” value in series [1] (bolus + infusion, dose range) is “demonstrated antithrombotic efficacy at the higher doses evaluated”. In series [2], the “average increase in PT” value stood at 1.07 fold and the “average increase in aPTT” value is reported as 1.61 fold.
Turning to `N=C(N)NCCC[C@@H](C=O)NC(=O)CNC(=O)[C@@H](CCCNC(=N)N)NC(=O)C(=O)O` [HOOCCO-D-Arg-Gly-Arg-H, Oxaloyl-D-Arg-Gly-Arg-H], the IC50 at prothrombinase complex worked out at 63 nM.
On to `CC(C)(C)OC(=O)N[C@H](CCCNC(N)=O)C(=O)NCC(=O)N[C@H](C=O)CCCNC(=N)N` [Boc-D-Cit-Gly-Arg-H] (Boc-[dCit]-Gly-Arg-aldehyde), for which, at factor Xa, the half-maximal inhibitory concentration (IC50) turned out to be 3000 nM.

In general, IC50 refers to the point on the concentration scale where inhibition reaches its midpoint.
